Results as given in patent publication US20250129086A1, “COMPOUND FOR DEGRADING EGFR PROTEIN AND USE THEREOF” (TYK MEDICINES, INC., priority 2021, published 2025).

Legend:
Type in all cases: cell-based, human
[1] = system: HCC827 (exon 19 deletion mutation); assay: Cell antiproliferative assay (CTG, 72 h), HCC827; details: Table 2, HCC827 cells
Method: (§1) Test Example 1 Cell Antiproliferative Assay
(§2) H1975: with EGFR: L858R/T790M double mutation; PC-9 with EGFR exon 19 deletion, HCC827 with exon 19 deletion mutation. CellCounting-Lite2.0, Trypsin EDTA, 37° C. CO2 incubator, cell counter, EnVision Serial No.1050454. II. Experimental preparation:
(§3) • (A) Trypsin EDTA was used to digest log-phase cells, medium was added to terminate the reaction, and a cell suspension was made by blowing and mixing with a pipette. • (B) Cell concentration was determined using Vi-cell, and a suspension of 15,000-25,000 cells per milliliter was made depending on the purpose of the experiment and the characteristics of the cells. • (C) After the cell suspension was prepared, it was gently mixed and 100 microliters per well was added so that the density of cells to be tested was 1500-2500 per well.
(§4) • (A) About 2 mg of compound was weighed, and the volume of DMSO required was calculated according to the formula: compound mass (mg)*compound purity (%)/compound molecular weight*1000 • (B) The inoculated cell culture plates were incubated in an incubator and the compounds with concentration gradient were added after about 24 hours. • (C)10 Mm of compound stock solution was diluted to […] with medium, and 50 Mm of compound solution was added sequentially to the second column of the deep-well plate, and […] of medium containing 0.5% DMSO was added to the third to eleventh columns. • (D) Gradient dilution: 125 μl of solution was pipetted from the second column and added to the third column, after mixing; another 125 μl of solution was pipetted from the third column and added to the fourth column, and the operation was repeated until the tenth column. • (E)25 μl of compound was pipetted from the deep-well plate into a 96-well culture plate using a multichannel pipette, and each compound was repeated three times on the 96-well plate. A maximum concentration of 10,000 nm with concentration gradient of 1:4 was eventually formed on the 96-well plate.
(§5) • (A)96-well plates were incubated in an incubator for 72 h. The effect of the compounds was observed under an inverted microscope. • (B)25 μl of CTG solution was added to each well, the plate was put on shaker for 10 minutes and the […] of each well was read.
(§6) The cell viability rate (% Cell Viability) was calculated using the following formula: • % Cell Viability=100%×(Lum_Sample-Lum_LC)/(Lum_HC-Lum_LC) • Lum_HC: Cell reading of 0.1% DMSO control • Lum_Sample: Cell reading with compound added • Lum_LC: Reading of Blank media • IC50 values were obtained by curve fitting with GraphPad Prism 8 software.

[2] = system: H1975 (EGFR L858R/T790M double mutation); assay: Cell antiproliferative assay (CTG, 72 h), H1975; details: Table 2, H1975 cells
Method: as §1, §2, §3, §4, §5, §6

[3] = system: PC-9 (EGFR exon 19 deletion); assay: Cell antiproliferative assay (CTG, 72 h), PC-9; details: Table 2, PC-9 cells
Method: as §1, §2, §3, §4, §5, §6

Compound	IC50 ([1]; Homo sapiens, HCC827, 72 h) [nM]	IC50 ([2]; Homo sapiens, NCI-H1975, 72 h) [nM]	IC50 ([3]; Homo sapiens, PC-9, 72 h) [nM]	also measured
COc1cc(N2CCN(C(=O)CN3CCC(c4ccc(NC5CCC(=O)NC5=O)cc4)CC3)CC2)ccc1Nc1ncc(Cl)c(Nc2ccccc2)n1 (stereo not drawn) [Compound T-01]	100 to 1000	10 to 100	100 to 1000	–
COc1cc(N2CCN(C(=O)CN3CCC(c4ccc(NC5CCC(=O)NC5=O)cc4)CC3)CC2)ccc1Nc1ncc(C(F)(F)F)c(Nc2ccccc2)n1 (stereo not drawn) [Compound T-02]	≥ 1000	10 to 100	100 to 1000	–
COc1cc(N2CCN(C(=O)CN3CCC(c4ccc(NC5CCC(=O)NC5=O)cc4F)CC3)CC2)ccc1Nc1ncc(Cl)c(Nc2ccccc2)n1 (stereo not drawn) [Compound T-04]	≥ 1000	10 to 100	100 to 1000	–
COc1cc(N2CCN(C(=O)CN3CCC(c4ccc(NC5CCC(=O)NC5=O)cc4)CC3)CC2)ccc1Nc1ncc(Cl)c(Nc2cccc(F)c2)n1 (stereo not drawn) [Compound T-09]	≥ 1000	10 to 100	≥ 1000	–
COc1cc(N2CCN(C(=O)CN3CCC(c4ccc5c(N6CCC(=O)NC6=O)nn(C)c5c4)CC3)CC2)ccc1Nc1ncc(Cl)c(Nc2ccccc2)n1 [Compound T-14]	≥ 1000	10 to 100	≥ 1000	–
COc1cc(N2CCN(C(=O)CN3CCC(c4ccc(NC5CCC(=O)NC5=O)cc4)CC3)CC2)ccc1Nc1ncc(C(F)(F)F)c(Nc2ccccc2P(C)(C)=O)n1 (stereo not drawn) [Compound T-46]	100 to 1000	10 to 100	≥ 1000	–
COc1cc(N2CCN(C(=O)CN3CCC(c4ccc(NC5CCC(=O)NC5=O)cc4)CC3)CC2)ccc1Nc1ncc(C(F)(F)F)c(Nc2ccc(F)cc2)n1 (stereo not drawn) [Compound T-51]	–	10 to 100	≥ 1000	IC50 [1]: ≥ 1000 nM
COc1cc(N2CCN(C(=O)CN3CCC(c4ccc(NC5CCC(=O)NC5=O)cc4)CC3)CC2)ccc1Nc1ncc(C(F)(F)F)c(Nc2ccc(F)cc2)n1 (stereo not drawn) [Compound T-52]	–	–	–	IC50 [1]: 100 to 1000 nM; IC50 [2]: 10 to 100 nM; IC50 [3]: ≥ 1000 nM
COc1cc(N2CCN(C(=O)CN3CCC(c4ccc(NC5CCC(=O)NC5=O)cc4)CC3)CC2)c(C)cc1Nc1ncc(C(F)(F)F)c(Nc2ccccc2C(C)=O)n1 (stereo not drawn) [Compound T-58]	100 to 1000	10 to 100	100 to 1000	–
COc1cc(N2CCN(C(=O)CN3CCC(c4ccc(NC5CCC(=O)NC5=O)cc4)CC3)CC2)c(C)cc1Nc1ncc(Br)c(Nc2ccccc2C(C)=O)n1 (stereo not drawn) [Compound T-59]	100 to 1000	10 to 100	100 to 1000	–
COc1cc(C2CCN(C(=O)CN3CCC(c4ccc(NC5CCC(=O)NC5=O)cc4)CC3)CC2)ccc1Nc1ncc(Cl)c(Nc2ccccc2C(C)=O)n1 (stereo not drawn) [Compound T-69]	–	–	–	IC50 [1]: 100 to 1000 nM; IC50 [2]: 100 to 1000 nM; IC50 [3]: 100 to 1000 nM
COc1cc(N2CCN(C(=O)CN3CCN(c4ccc(NC5CCC(=O)NC5=O)cc4)CC3)CC2)ccc1Nc1ncc(Cl)c(Nc2ccccc2C(C)=O)n1 (stereo not drawn) [Compound T-82]	≥ 1000	100 to 1000	≥ 1000	–
COc1cc(N2CCN(C(=O)CN3CCC(c4ccc(NC5CCC(=O)NC5=O)nc4)CC3)CC2)ccc1Nc1ncc(Cl)c(Nc2ccccc2C(C)=O)n1 (stereo not drawn) [Compound T-100]	100 to 1000	100 to 1000	100 to 1000	–
COc1cc(N2CCN(C(=O)CN3CCN(c4ccc5c(c4)CN(C4CCC(=O)NC4=O)C5=O)CC3)CC2)ccc1Nc1ncc(Cl)c(Nc2ccccc2C(C)=O)n1 (stereo not drawn) [Compound T-109]	≥ 1000	100 to 1000	≥ 1000	–
COc1cc(N2CCN(C(=O)CN3CCC(c4ccc(NC5CCC(=O)NC5=O)cc4)CC3)CC2)c(C)cc1Nc1ncc(Cl)c(Nc2ccccc2)n1 (stereo not drawn) [Compound T-122]	100 to 1000	100 to 1000	100 to 1000	–
COc1cc(N2CCN(CCCN3CCC(c4ccc(NC5CCC(=O)NC5=O)cc4)CC3)CC2)ccc1Nc1ncc(Cl)c(Nc2ccccc2C(C)=O)n1 (stereo not drawn) [Compound T-183]	–	100 to 1000	–	–
COC(=O)c1ccccc1Nc1nc(Nc2ccc(N3CCN(C(=O)CN4CCC(c5ccc(NC6CCC(=O)NC6=O)cc5)CC4)CC3)cc2OC)ncc1Cl (stereo not drawn) [Compound T-194]	–	100 to 1000	–	–

Compound	IC50 ([1]; Homo sapiens, HCC827, 72 h) [nM]	IC50 ([2]; Homo sapiens, NCI-H1975, 72 h) [nM]	IC50 ([3]; Homo sapiens, PC-9, 72 h) [nM]	also measured
COc1cc(N2CCN(C(=O)CN3CCN(c4ccc5c(c4)C(=O)N(C4CCC(=O)NC4=O)C5=O)CC3)CC2)ccc1Nc1ncc(Cl)c(Nc2ccccc2C(C)=O)n1 (stereo not drawn) [Compound T-201]	–	100 to 1000	–	–
COc1cc(N2CCN(C(=O)C3CCN(CC4CCN(c5ccc6c(c5)C(=O)N(C5CCC(=O)NC5=O)C6=O)CC4)CC3)CC2)ccc1Nc1ncc(Cl)c(Nc2ccccc2C(C)=O)n1 (stereo not drawn) [Compound T-204]	–	100 to 1000	–	–
COc1nc(N2CCN(C(=O)CN3CCC(c4ccc(NC5CCC(=O)NC5=O)cc4)CC3)CC2)ccc1Nc1ncc(Cl)c(Nc2ccccc2C(C)=O)n1 (stereo not drawn) [Compound T-208]	–	100 to 1000	–	–
COc1cc(N2CCN(C(=O)CNc3ccc4c(c3)C(=O)N(C3CCC(=O)NC3=O)C4=O)CC2)ccc1Nc1ncc(Cl)c(Nc2ccccc2C(C)=O)n1 (stereo not drawn) [Compound T-230]	–	100 to 1000	–	–
COc1cc(N2CCN(CC(=O)NCCNc3cccc4c3C(=O)N(C3CCC(=O)NC3=O)C4=O)CC2)ccc1Nc1ncc(Cl)c(Nc2ccccc2C(C)=O)n1 (stereo not drawn) [Compound T-238]	–	100 to 1000	–	–
COc1cc(N2CCN(C(=O)CN3CCC(c4ccc5c(cnn5C5CCC(=O)NC5=O)c4)CC3)CC2)ccc1Nc1ncc(Cl)c(Nc2ccccc2)n1 (stereo not drawn) [Compound T-326]	–	100 to 1000	–	–
COC(=O)Nc1ccccc1Nc1nc(Nc2ccc(N3CCN(C(=O)CN4CCC(c5ccc(NC6CCC(=O)NC6=O)cc5)CC4)CC3)cc2OC)ncc1Cl (stereo not drawn) [Compound T-340]	–	100 to 1000	–	–
CCc1cc(Nc2ncc(Cl)c(Nc3ccccc3C(=O)NC)n2)c(OC)cc1N1CCN(C(=O)CN2CCC(c3ccc(NC4CCC(=O)NC4=O)cc3)CC2)CC1 (stereo not drawn) [Compound T-361]	–	10 to 100	–	–
CCc1cc(Nc2ncc(Br)c(Nc3ccccc3C(=O)NC)n2)c(OC)cc1N1CCN(C(=O)CN2CCC(c3ccc(NC4CCC(=O)NC4=O)cc3)CC2)CC1 (stereo not drawn) [Compound T-362]	–	10 to 100	–	–
CCc1cc(Nc2ncc(C(F)(F)F)c(Nc3ccccc3C(=O)NC)n2)c(OC)cc1N1CCN(C(=O)CN2CCC(c3ccc(NC4CCC(=O)NC4=O)cc3)CC2)CC1 (stereo not drawn) [Compound T-363]	–	10 to 100	–	–
CNC(=O)c1ccccc1Nc1nc(Nc2cc(C)c(N3CCN(C(=O)CN4CCN(c5ccc(NC6CCC(=O)NC6=O)cc5)CC4)CC3)cc2OC)ncc1Cl (stereo not drawn) [Compound T-364]	–	10 to 100	–	–
CCNC(=O)c1ccccc1Nc1nc(Nc2ccc(N3CCN(C(=O)CN4CCC(c5ccc(NC6CCC(=O)NC6=O)cc5)CC4)CC3)cc2OC)ncc1Br (stereo not drawn) [Compound T-374]	–	10 to 100	–	–
CCc1cc(Nc2ncc(Cl)c(Nc3ccccc3C(=O)NC)n2)c(OC)cc1N1CCN(C(=O)CN2CCC(c3ccc(NC4CCC(=O)NC4=O)cc3)CC2)CC1 (stereo not drawn) [Compound T-375]	–	–	–	IC50 [2]: 10 to 100 nM
CNC(=O)c1ccccc1Nc1nc(Nc2cc(CC(F)(F)F)c(N3CCN(C(=O)CN4CCC(c5ccc(NC6CCC(=O)NC6=O)cc5)CC4)CC3)cc2OC)ncc1Cl (stereo not drawn) [Compound T-377]	–	10 to 100	–	–
CCc1cc(Nc2ncc(Cl)c(Nc3ccccc3C(C)=O)n2)c(OC)cc1N1CCN(C(=O)CN2CCC(c3ccc(NC4CCC(=O)NC4=O)cc3)CC2)CC1 (stereo not drawn) [Compound T-378]	–	10 to 100	–	–
CNC(=O)c1ccccc1Nc1nc(Nc2cc(CC(F)(F)F)c(N3CCN(C(=O)CN4CCC(c5ccc(NC6CCC(=O)NC6=O)cc5)CC4)CC3)cc2OC)ncc1Br (stereo not drawn) [Compound T-381]	–	10 to 100	–	–
